{"source": "patent US20030229025A1", "about": "“Intranasal administration of MC4-R agonists” (Chiron Corporation, priority 2002, published 2003)", "key": {"ob/ob mice [1]": {"tested_on": "ob/ob mice", "assay": "Intranasal (IN) efficacy: food intake in fasted ob/ob mice", "assay_type": "in vivo", "settings": "Mus musculus, inhaled or nasal, 4 hour, read-out: % Food Intake Reduction at 4 hour", "experimental": "Subjects: ob/ob mice; approximately 10 weeks old males; body weight 50-60 grams.\nThe mice were divided into the following groups:\n1) Mice received only vehicle. The vehicle was one of the following: water, 10 mM phosphate buffer, 5% captisol in 10 mM phosphate buffer (see Table 1 for details).\n2) Mice received a compound of an embodiment of the present invention at a dosage of 1 mg/kg.\n3) Mice received a compound of an embodiment of the present invention at a dosage of 3 mg/kg.\n4) Mice received a compound of an embodiment of the present invention at a dosage of 6 mg/kg. n=6-8 animals per group\nNote: For compound 1 and compound 2, the 1 mg/kg group was not included.\nAnimals were fasted overnight (˜16 hours), and an MC4-R agonist compound as described in Tables 1-3 was administered at 8:30 am next day. The administration volume was […]/50 grams of body weight. The animal was gently held by one hand, and the compound solution was delivered by the other hand using a pipette with fine tips. The rate of delivery was such that the full amount was given in not less than 60 seconds to ensure maximal absorption. Pre-weighed food was given to the animals immediately after dosing, and animals had free access to water throughout the study. Food weighing was performed at 1, 2, 3, 4, and 6 hours after dosing. On occasion, food weighing was also taken at the 8 hour or 24 hour time point. Animals were euthanized using carbon dioxide followed by cervical dislocation at the end of the experiment.\nMice were fasted overnight. At 8:30 am the next morning, they were dosed with 25 μl of vehicle or compound solution by intranasal delivery. The solution was delivered using a pipette with protein loading tips. The rate of delivery was such that the full amount was given in not less than 60 seconds. Mice were fed with pre-weighed food immediately after dosing, and had access to water the entire time. Food weight was measured at 1, 2, 3, 4, 6, and 8 hours following the dosing. Mice were euthanized at the end of the study using CO2 followed by cervical dislocation."}, "[2]": {"settings": "human subjects, cited from earlier work; for body fat: intranasal administration"}, "[3]": {"settings": "acute intranasal administration; ACTH4-10 1 mg, desacetyl-αMSH 1.68 mg (equimolar); cited from earlier work"}, "ob/ob mice [4]": {"tested_on": "ob/ob mice", "assay": "Intranasal (IN) efficacy: food intake in fasted ob/ob mice", "assay_type": "in vivo", "settings": "Mus musculus, inhaled or nasal, 4 hour, read-out: % Food Intake Reduction at 4 hour", "remark": "listed apart in the source"}}, "note": "Ends that are not written are not given here."}
{"molecule": "C[C@@H]1[C@@H](/N=C(\\Nc2ccc(NC(=O)CCc3ccc(Cl)cc3Cl)cc2)N2CCN[C@@H](C)C2)C[C@H]2C[C@@H]1C2(C)C", "note": "[Compound 6]", "values": [{"measurement": "inhibition in vivo at 1 mg/kg", "setting": "ob/ob mice [1]", "result": -11.9, "unit": "%"}, {"measurement": "inhibition in vivo at 3 mg/kg", "setting": "ob/ob mice [1]", "result": 21.3, "unit": "%"}, {"measurement": "inhibition in vivo at 6 mg/kg", "setting": "ob/ob mice [1]", "result": 57.4, "unit": "%"}]}
{"molecule": "MSH/ACTH4-10: melanocyte stimulating hormone/adrenocorticotropin4-10; behaviorally active fragment of ACTH (MEHFRWG; Corticotropin; UniProt P01189 141-147, looked up, fragment)", "values": [{"measurement": "plasma leptin levels and insulin levels", "setting": "[2]; after intranasal administration", "result": "decreased"}, {"measurement": "body fat", "setting": "[2]", "result": "reduced body fat"}, {"measurement": "processing negativity (PN) of the ERP over frontal and central cortical areas", "setting": "[3]", "result": "reduced the processing negativity"}]}
{"molecule": "C[C@@H]1[C@@H](/N=C(/Nc2ccc(C(=O)OCCc3ccc(Cl)cc3Cl)cc2)N2C[C@@H](C)N[C@@H](C)C2)C[C@H]2C[C@@H]1C2(C)C", "note": "[Compound 7]", "values": [{"measurement": "inhibition in vivo at 1 mg/kg", "setting": "ob/ob mice [1]", "result": 23.5, "unit": "%"}, {"measurement": "inhibition in vivo at 3 mg/kg", "setting": "ob/ob mice [1]", "result": 42.7, "unit": "%"}, {"measurement": "inhibition in vivo at 6 mg/kg", "setting": "ob/ob mice [1]", "result": 85.5, "unit": "%"}]}
{"molecule": "COc1ccc(CCNC(=O)c2ccc(N/C(=N/[C@H]3C[C@H]4C[C@@H]([C@@H]3C)C4(C)C)N3C[C@@H](C)N[C@@H](C)C3)cc2)c(F)c1", "note": "[Compound 3]", "values": [{"measurement": "inhibition in vivo at 1 mg/kg", "setting": "ob/ob mice [1]", "result": -3, "unit": "%"}, {"measurement": "inhibition in vivo at 3 mg/kg", "setting": "ob/ob mice [1]", "result": 63.8, "unit": "%"}, {"measurement": "inhibition in vivo at 6 mg/kg", "setting": "ob/ob mice [1]", "result": 70.3, "unit": "%"}]}
{"molecule": "C[C@@H]1[C@@H](/N=C(/Nc2ccc(C(=O)N[C@H](CO)Cc3ccc(Cl)cc3Cl)cn2)N2C[C@@H](C)N[C@@H](C)C2)C[C@H]2C[C@@H]1C2(C)C", "note": "[Compound 11]", "values": [{"measurement": "inhibition in vivo at 1 mg/kg", "setting": "ob/ob mice [1]", "result": 27.7, "unit": "%"}, {"measurement": "inhibition in vivo at 3 mg/kg", "setting": "ob/ob mice [1]", "result": 82, "unit": "%"}, {"measurement": "inhibition in vivo at 0.5 mg/kg", "setting": "ob/ob mice [4]", "result": -3.8, "unit": "%"}]}
{"molecule": "COc1ccc(CCN2CCc3cc(N/C(=N/[C@H]4C[C@H]5C[C@@H]([C@@H]4C)C5(C)C)N4CCN[C@@H](C)C4)ccc3C2=O)c(F)c1", "note": "[Compound 10]", "values": [{"measurement": "inhibition in vivo at 1 mg/kg", "setting": "ob/ob mice [1]", "result": 14.2, "unit": "%"}, {"measurement": "inhibition in vivo at 3 mg/kg", "setting": "ob/ob mice [1]", "result": 39.7, "unit": "%"}]}
{"molecule": "CCOC(=O)c1ccc(N/C(=N/[C@H]2C[C@H]3C[C@@H]([C@@H]2C)C3(C)C)N2C[C@@H](C)N[C@@H](C)C2)cc1", "note": "[Compound 8]", "values": [{"measurement": "inhibition in vivo at 1 mg/kg", "setting": "ob/ob mice [1]", "result": 37.8, "unit": "%"}, {"measurement": "inhibition in vivo at 3 mg/kg", "setting": "ob/ob mice [1]", "result": 60, "unit": "%"}, {"measurement": "inhibition in vivo at 6 mg/kg", "setting": "ob/ob mice [1]", "result": 84.1, "unit": "%"}]}
{"molecule": "COc1ccc(CCNC(=O)c2ccc(N/C(=N/[C@H]3C[C@H]4C[C@@H]([C@@H]3C)C4(C)C)N3C[C@H](C)N[C@@H](C)C3)nc2)c(F)c1", "note": "[Compound 9]", "values": [{"measurement": "inhibition in vivo at 1 mg/kg", "setting": "ob/ob mice [1]", "result": 35.2, "unit": "%"}, {"measurement": "inhibition in vivo at 3 mg/kg", "setting": "ob/ob mice [1]", "result": 70.2, "unit": "%"}, {"measurement": "inhibition in vivo at 6 mg/kg", "setting": "ob/ob mice [1]", "result": 69.6, "unit": "%"}]}
{"molecule": "COc1ccc(CCNC(=O)c2ccc(N/C(=N/[C@H]3C[C@H]4C[C@@H]([C@@H]3C)C4(C)C)N3CCN[C@@H](C)C3)cc2)c(F)c1", "note": "[Compound 1]", "values": [{"measurement": "inhibition in vivo at 3 mg/kg", "setting": "ob/ob mice [1]", "result": 59, "unit": "%"}, {"measurement": "inhibition in vivo at 6 mg/kg", "setting": "ob/ob mice [1]", "result": 91.5, "unit": "%"}]}
{"molecule": "Cc1ccc(CCc2nc3ccc(N/C(=N\\[C@H]4C[C@H]5C[C@@H]([C@@H]4C)C5(C)C)N4CCN[C@@H](C)C4)cc3[nH]2)c(C)c1", "note": "[Compound 2]", "values": [{"measurement": "inhibition in vivo at 3 mg/kg", "setting": "ob/ob mice [1]", "result": 23.7, "unit": "%"}, {"measurement": "inhibition in vivo at 6 mg/kg", "setting": "ob/ob mice [1]", "result": 1.7, "unit": "%"}]}
{"molecule": "desacetyl-αMSH: melanocortin peptide intranasally administered in the cited studies of Fehm et al. and Smolnik et al. (SYSMEHFRWGKPV; ends and bridges not checked; UniProt P01189 138-150, looked up)", "values": [{"measurement": "body fat", "setting": "[2]", "result": "nonsignificant"}, {"measurement": "processing negativity (PN) of the ERP over frontal and central cortical areas", "setting": "[3]", "result": "ineffective"}]}
{"molecule": "COc1ccc(CCn2cnc3cc(N/C(=N/[C@H]4C[C@H]5C[C@@H]([C@@H]4C)C5(C)C)N4CCN[C@@H](C)C4)ccc3c2=O)c(F)c1", "note": "[Compound 12]", "values": [{"measurement": "inhibition in vivo at 1 mg/kg", "setting": "ob/ob mice [1]", "result": 22.6, "unit": "%"}, {"measurement": "inhibition in vivo at 3 mg/kg", "setting": "ob/ob mice [1]", "result": 47.2, "unit": "%"}, {"measurement": "inhibition in vivo at 0.5 mg/kg", "setting": "ob/ob mice [4]", "result": 6, "unit": "%"}]}
{"molecule": "C[C@@H]1[C@@H](/N=C(\\Nc2ccc3[nH]c(CCc4ccc(Cl)cc4Cl)nc3c2)N2CCN[C@@H](C)C2)C[C@H]2C[C@@H]1C2(C)C", "note": "[Compound 5]", "values": [{"measurement": "inhibition in vivo at 1 mg/kg", "setting": "ob/ob mice [1]", "result": 10.4, "unit": "%"}, {"measurement": "inhibition in vivo at 3 mg/kg", "setting": "ob/ob mice [1]", "result": 53.1, "unit": "%"}, {"measurement": "inhibition in vivo at 6 mg/kg", "setting": "ob/ob mice [1]", "result": 67.3, "unit": "%"}]}
